For two cell lines, relative viability results are on record in the supplement of paper PMC10307832.

Holding throughout (assay): relative viability (nuclei count vs DMSO), 5 days (fraction); higher = more cells survive
Compound in the assay “BAM7 + Bortezomib”: CCOC1=CC=CC=C1N=NC2=C(NN(C2=O)C3=NC(=CS3)C4=CC=CC=C4)C [BAM7] + CC(C)C[C@H](NC(=O)[C@H](Cc1ccccc1)NC(=O)c1cnccn1)B(O)O [Bortezomib] (partner 0.002 µM)
Put shortly: (§1)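 Relative viability divides the nuclei count in treated wells by that in vehicle wells. Lung cancer cell lines were seeded in 1536-well plates, dosed by pin tool the next day, and fixed and stained after 5 days in one step with final 0.05% Triton X-100, 1% formaldehyde and 1 ug/ml Hoechst. Dosing was a single drug or a fixed anchor-drug dose plus five library-drug doses (not always all listed) in √10 steps, and values are medians of duplicate plates imaged at 4×.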

Compound in the assay “BAM7 + Crizotinib”: CCOC1=CC=CC=C1N=NC2=C(NN(C2=O)C3=NC(=CS3)C4=CC=CC=C4)C [BAM7] + C[C@@H](Oc1cc(-c2cnn(C3CCNCC3)c2)cnc1N)c1c(Cl)ccc(F)c1Cl [Crizotinib] (partner 1 µM)
The method in brief:
as §1

Compound in assay [1]: CCn1c(-c2nonc2N)nc2c(C#CC(C)(C)O)ncc(OC[C@H]3CCCNC3)c21 + CC(C)C[C@H](NC(=O)[C@H](Cc1ccccc1)NC(=O)c1cnccn1)B(O)O [Bortezomib] (partner 0.002 µM)
The method in brief:
as §1

Compound in assay [2]: CCn1c(-c2nonc2N)nc2c(C#CC(C)(C)O)ncc(OC[C@H]3CCCNC3)c21 + NC(=O)Nc1cc(-c2cccc(F)c2)sc1C(=O)N[C@H]1CCCNC1 [AZD7762] (partner 0.2 µM)
Put shortly:
as §1

On to NCI-H838, for which the relative viability in the assay with BAM7 + Bortezomib (first compound 0.5 µM) amounted to 0.771; in the assay with BAM7 + Bortezomib (first compound 5 µM), 0.961; in the assay with BAM7 + Bortezomib (first compound 15.81 µM), 0.631; with BAM7 + Bortezomib (first compound 50 µM) it was 1.1; with BAM7 + Crizotinib (first compound 0.5 µM), 0.867; with BAM7 + Crizotinib (first compound 5 µM), 0.904. The relative viability in the assay with BAM7 + Crizotinib (first compound 15.81 µM) turned out to be 0.803; with BAM7 + Crizotinib (first compound 50 µM), 0.783; in assay [1] (first compound 0.01 µM), 1.25; in assay [1] (first compound 0.03162 µM) it was 0.971; in assay [1] (first compound 0.1 µM) it was 0.945; in assay [1] (first compound 0.3162 µM) it was 0.545. The relative viability in assay [1] (first compound 1 µM) is 0.655; in assay [2] (first compound 0.01 µM), 0.957; in assay [2] (first compound 0.03162 µM) it was 1.02; in assay [2] (first compound 0.1 µM) it was 0.988; in assay [2] (first compound 0.3162 µM), 0.855; in assay [2] (first compound 1 µM), 0.9.
With CAL-12T, the relative viability with BAM7 + Bortezomib (first compound 0.5 µM) stood at 0.986; with BAM7 + Bortezomib (first compound 5 µM), 0.97; with BAM7 + Bortezomib (first compound 15.81 µM) it was 1; with BAM7 + Bortezomib (first compound 50 µM), 1.09; with BAM7 + Crizotinib (first compound 0.5 µM), 0.737; with BAM7 + Crizotinib (first compound 5 µM), 0.941. Also, the relative viability with BAM7 + Crizotinib (first compound 15.81 µM) was found to be 0.695; with BAM7 + Crizotinib (first compound 50 µM), 0.652; in assay [1] (first compound 0.01 µM), 0.939; in assay [1] (first compound 0.03162 µM) it was 0.852; in assay [1] (first compound 0.1 µM), 1.08; in assay [1] (first compound 0.3162 µM), 1.16. Moreover, the relative viability in assay [1] (first compound 1 µM) was 1.1; in assay [2] (first compound 0.01 µM) it was 0.556; in assay [2] (first compound 0.03162 µM), 0.651; in assay [2] (first compound 0.1 µM) it was 0.567; in assay [2] (first compound 0.3162 µM), 0.624; in assay [2] (first compound 1 µM) it was 0.708.
